Results: patent US6008226A, “Substituted N-arylmethyl and heterocylylmethyl-1H-pyrazolo[3,4-b]quinolin-4-amines and compositions and methods of use thereof” (Sanofi-Synthelabo, priority 1998, dated 1999)
Counter-ions that a name gives are not always drawn.

Legend:
cGMP-PDE V [1] = target: T1, cGMP-PDE V (Homo sapiens, UniProt O76074); test: c-GMP-PDE V inhibitory activity (cyclic nucleotide hydrolysis by isolated PDE isozymes); assay type: biochemical, various animal species and man; details: for inhibition at 10 µM: read-out: Percent Inhibition cGMP-PDE V
T1 construct: The cGMP-PDE and other PDE isozymes were isolated from cardiovascular tissues (heart and aorta); from tissue; host or cells: cardiovascular tissues (heart and aorta) of various animal species and man
Protocol: The cGMP-PDE and other PDE isozymes were isolated from cardiovascular tissues (heart and aorta) of various animal species and man by anion-exchange and affinity chromatography as described by Silver et al., Sec. Messeng. Phos. 13: 13-25, 1991; PDE activity, in the presence and absence of test compounds was determined essentially as described by Thompson et al., Adv. Cyclic Nucleotide Res. 10: 69-92. To determine the potency and selectivity of compounds as PDE inhibitors, compounds are screened for their effect on cyclic nucleotide hydrolysis at 10 μM. If ≥50% inhibition of PDE activity is observed, an IC50 value (concentration of compound causing 50% reduction in PDE activity) and corresponding 95% confidence intervals are generated. The IC50 values are calculated from concentration-response curves as described by Tallarida and Murray, Manual of Pharmacologic Calculations with Computer Programs, Procedure 8, Graded Dose-response, pp. 14-19, Springer-Verlag, New York, 1981.

[2] = test system: Spontaneously hypertensive rats (SHR); test: antihypertensive activity in conscious spontaneously hypertensive rats (SHR), iv; assay type: in vivo, rat; details: for ED25: Rattus norvegicus, 5 min, iv, 5 minutes after each cumulative dose, read-out: SHR iv ED25, mean arterial pressure
Protocol: After a 2 day recovery from surgery, three baseline blood pressure measurements were made at 5 min intervals in conscious SHR. Compounds to be tested or vehicle were then administered intravenously in a dose-dependent manner (0.3-10 mg base/kg) while arterial pressure was recorded continuously on a polygraph. The mean arterial pressure response was measured 5 minutes after the administration of each dose of the test compound and the next dose given in a cumulative dose fashion. The response to each dose of the test compound was calculated as the difference from the mean of the three baseline measurements.

cGMP-PDE V [3] = target: T1, cGMP-PDE V; test: c-GMP-PDE V inhibitory activity (cyclic nucleotide hydrolysis by isolated PDE isozymes); assay type: biochemical, various animal species and man; details: read-out: Percent Inhibition cGMP-PDE V
interferon = details: Crenshaw et al.; cited from earlier work
[4] = test system: Spontaneously hypertensive rats; test: reversing or reducing nitrate-induced tolerance in spontaneously hypertensive rats; assay type: in vivo, rat
Protocol: Spontaneously hypertensive rats (17-25 weeks of age) are made nitroglycerin tolerant by repeated administration of high doses of nitroglycerin (100 mg/kg, s.c., 3 times/day for 3 consecutive days). To confirm tolerance challenge doses of nitroglycerin are administered intravenously at doses ranging from 1-300 μg/kg and the maximum change in mean arterial pressure (MAP) for each dose is recorded. Groups of tolerant rats are then pretreated with the compounds of the invention (tolerant pretreated group) or with vehicle (0.05 N NaOH) (tolerant vehicle pretreated group) intravenously 5-10 minutes prior to administration of challenge doses of nitroglycerin. The administration of challenge doses of nitroglycerin to non-tolerant rats (the non-tolerant group) causes a dose-dependent decrease in MAP of between 10 to 40 mm Hg. […] It is expected that the administration of challenge doses of nitroglycerin to tolerant rats which have been pretreated with the compounds of the invention (tolerant pretreated group) should result in varying degrees of restoration of the hypotensive response. The area under the dose-MAP curve is then calculated for the non-tolerant group and for the tolerant vehicle pretreated group and the tolerant pretreated group. The percent reversal of nitrate-inducedtolerance is then calculated as follows:
Percent Reversal=(AUCtol-pretreated -AUCtol-veh)/(AUCnontol […]

Structure (SMILES)	IC50 (cGMP-PDE V [1])	inhibition at 10 µM (cGMP-PDE V [1])	inhibition at 1 µM (cGMP-PDE V [3])	other results
CCn1ncc2c(NCc3ccccc3)c3ccccc3nc21 [1(a), 1-ethyl-N-(phenylmethyl)-1H-pyrazolo[3,4-b]quinolin-4-amine]	210 nM			ED25 [2]: 25 mg/kg
CCn1ncc2c(NCCc3ccccc3)c3ccccc3nc21 [2(c), 1-ethyl-N-(phenylethyl)-1H-pyrazolo[3,4-b]quinoline-4 amine]	4200 nM			ED25 [2]: 16.5 mg/kg
CC(C)n1ncc2c(NCc3ccccc3)c3ccccc3nc21 [4(c), 1-isopropyl-N-(phenylmethyl)-1H-pyrazolo[3,4-b]quinolin-4-amine]	180 nM			
CCn1ncc2c(NCc3ccccc3)c3ccc(OC)cc3nc21 [5(e), 1-ethyl-7-methoxy-N-(phenylmethyl)-1H-pyrazolo[3,4-b]quinolin-4-amine]		85%	54%	inhibition at 0.1 µM (cGMP-PDE V [3]): 14%
CCn1nc(C)c2c(NCc3ccccc3)c3ccccc3nc21 [9(d), 1-ethyl-3-methyl-N-(phenylmethyl)-1H-pyrazolo[3,4-b]quinolin-4-amine·HCl]	170 nM			
CCn1ncc2c(NCc3ccc(OCCN4CCOCC4)cc3)c3ccccc3nc21 [15(c), 1-ethyl-N-[4-[2-(4-morpholinyl)ethoxy]phenylmethyl]-1H-pyrazolo[3,4-b]quinolin-4-amine]		34%	20%	inhibition at 0.1 µM (cGMP-PDE V [3]): 0%
CCn1ncc2c(NCc3ccc(O)cc3)c3ccccc3nc21 [18(a), 1-ethyl-N-(4-hydroxyphenylmethyl)-1H-pyrazolo[3,4-b]quinolin-4-amine CH3 SO3 H]	91 nM			
CCn1ncc2c(NCc3ccc(O)cc3)c3ccccc3nc21 [18(b), 1-ethyl-N-(4-hydroxyphenylmethyl)-1H-pyrazolo[3,4-b]quinolin-4-amine]		78%	82%	inhibition at 0.1 µM (cGMP-PDE V [3]): 63%
CCn1ncc2c(NCc3ccc(OC)cc3)c3cc(OC)ccc3nc21 [23(c), 1-ethyl-6-methoxy-N-(4-methoxyphenylmethyl)-1H-pyrazolo[3,4-b]quinolin-4-amine·CH3 SO3 H]	14 nM			SHR iv % change in mean arterial pressure ([2]; 1 mg/kg iv): -7%; SHR iv % change in mean arterial pressure ([2]; 3 mg/kg iv): -4%
CCn1ncc2c(NCc3ccc(OC)cc3)c3ccccc3nc21 [Example 3, 1-ethyl-N-(4-methoxyphenylmethyl)-1H-pyrazolo[3,4-b]quinolin-4-amine·HCl·1/2H2 O]	89 nM			
CCn1ncc2c(NCc3ccccc3)c3ccc(O)cc3nc21 [Example 6, 1-ethyl-7-hydroxy-N-(phenylmethyl)-1H-pyrazolo[3,4-b]quinolin-4-amine]		85%	50%	inhibition at 0.1 µM (cGMP-PDE V [3]): 17%
CCn1ncc2c(NCc3ccco3)c3ccccc3nc21 [Example 16, 1-ethyl-N-(2-furanylmethyl)-1H-pyrazolo[3,4-b]quinolin-4-amine]				SHR iv % change in mean arterial pressure ([2]; 10 mg/kg iv): -16%
Cc1nn(C)c2nc3ccccc3c(NCCCNC34CC5CC(CC(C5)C3)C4)c12 [N-(1,3-dimethyl-1H-pyrazolo[3,4-b]quinolin-4-yl)-N'-tricyclo[3.3.1.1^3,7]dec-1-yl-1,3-propane diamine]				activity in the interferon assay (interferon): inactive
Cc1nn(C)c2nc3ccccc3c(NCc3cccnc3)c12 [N-(3-pyridinylmethyl), N-(3-pyridinylmethyl)-1,3-dimethyl-1H-pyrazolo[3,4-b] quinolin-4-amine]				activity in the interferon assay (interferon): inactive
Cc1nn(C)c2nc3ccccc3c(NCc3ccccc3N(C)C)c12 [N-[[2-(dimethylamino)phenyl]methyl]-1,3-dimethyl-1H-pyrazolo[3,4-b] quinolin-4-amines]				activity in the interferon assay (interferon): inactive
Cc1nn(C)c2nc3ccccc3c(NC3CC3)c12 [N-cyclopropyl, N-cyclopropyl-1,3-dimethyl-1H-pyrazolo[3,4-b] quinolin-4-amine]				activity in the interferon assay (interferon): inactive
Cc1nn(C)c2nc3ccccc3c(NC34CC5CC(CC(C5)C3)C4)c12 [N-tricyclo[3.3.1.1^3,7]dec-1-yl, N-tricyclo[3.3.1.1^3,7]dec-1-yl-1,3-dimethyl-1H-pyrazolo[3,4-b] quinolin-4-amine]				activity in the interferon assay (interferon): inactive
O=[N+]([O-])OCC(CO[N+](=O)[O-])O[N+](=O)[O-] [nitroglycerin]				dose-dependent decrease in MAP ([4]; non-tolerant rats, nitroglycerin challenge 1-300 μg/kg iv): 10 to 40 mm Hg; hypotensive response to challenge doses of nitroglycerin ([4]; tolerant vehicle pretreated group, 1-300 μg/kg iv): significant reduction of the hypotensive response

Continued, in another order:

IC50 (cGMP-PDE V [1])	inhibition at 10 µM (cGMP-PDE V [1])	inhibition at 1 µM (cGMP-PDE V [3])	Structure (SMILES)	other results
180 nM			CCn1ncc2c(NCc3ccc(OC)c(OC)c3)c3ccccc3nc21 [Example 7, 1-ethyl-N-(3,4-dimethoxyphenylmethyl)-1H-pyrazolo[3,4-b]quinolin-4-amine]	
	50%	5%	CCn1ncc2c(NCc3ccncc3)c3ccccc3nc21 [Example 8, 1-ethyl-N-(4-pyridinylmethyl)-1H-pyrazolo[3,4-b]quinolin-4-amine]	inhibition at 0.1 µM (cGMP-PDE V [3]): 0%
	57%	0%	CCn1ncc2c(NCc3ccc(C#N)cc3)c3ccccc3nc21 [Example 10, 1-ethyl-N-(4-cyanophenylmethyl)-1H-pyrazolo[3,4-b]quinolin-4-amine]	
450 nM			CCn1ncc2c(NCc3cccc(OC)c3)c3ccccc3nc21 [Example 11, 1-ethyl-N-(3-methoxyphenylmethyl)-1H-pyrazolo[3,4-b]quinolin-4-amine]	
1140 nM			Cc1nn(C)c2nc3ccccc3c(NCc3ccccc3)c12 [Example 12(c), 1,3-dimethyl-N-(phenylmethyl)-1H-pyrazolo[3,4-b]quinolin-4-amine]	
150 nM			CCn1ncc2c(NCc3cccc(O)c3)c3ccccc3nc21 [Example 13, 1-ethyl-N-(3-hydroxyphenylmethyl)-1H-pyrazolo [3,4-b]quinolin-4-amine]	
86 nM			CCn1ncc2c(NCc3cccc(O)c3)c3ccccc3nc21 [Example 14, 1-ethyl-N-(3-hydroxyphenylmethyl)-1H-pyrazolo[3,4-b]quinolin-4-amine·2 CH3 SO3 H]	
	75%	43%	CCn1ncc2c(NCc3cccnc3)c3ccccc3nc21 [Example 19, 1-ethyl-N-(3-pyridinylmethyl)-1H-pyrazolo[3,4-b]quinolin-4-amine ·2CH3 SO3 H]	inhibition at 0.1 µM (cGMP-PDE V [3]): 10%
1260 nM			CCn1ncc2c(N(C)Cc3ccccc3)c3ccccc3nc21 [Example 20, 1-ethyl-N-(methyl)-N-(phenylmethyl)-1H-pyrazolo[3,4-b]quinolin-4-amine·CH3 SO3 H]	
	97%	58%	CCn1ncc2c(NCc3ccccn3)c3ccccc3nc21 [Example 21, 1-ethyl-N-(2-pyridinylmethyl)-1H-pyrazolo[3,4-b]quinolin-4-amine-2CH3SO3 H]	inhibition at 0.1 µM (cGMP-PDE V [3]): 27%
	94%	75%	CCn1ncc2c(NC3CCc4ccccc43)c3ccccc3nc21 (stereo not shown) [Example 22, 1-ethyl-N-(1-indanyl)-1H-pyrazolo[3,4-b]quinolin-4-amine·CH3 SO3 H]	inhibition at 0.1 µM (cGMP-PDE V [3]): 34%
120 nM			CCn1ncc2c(NCc3ccc(O)cc3)c3cc(O)ccc3nc21 [Example 24, 1-ethyl-6-hydroxy-N-(4-hydroxyphenylmethyl)-1H-pyrazolo[3,4-b]quinolin-4-amine-CH3 SO3 H]	SHR iv % change in mean arterial pressure ([2]; 1 mg/kg iv): -10%; SHR iv % change in mean arterial pressure ([2]; 3 mg/kg iv): -9%; SHR iv % change in mean arterial pressure ([2]; 10 mg/kg iv): -15%
